Assay results taken from US12396975B2, “Treatment of al amyloidosis with melflufen” (Oncopeptides AB, priority 2019, dated 2025).
Read-outs that look alike come from different tables or passages of the source.

Legend:
[1] = test system: plasma cells (CD138+ cells) within bone marrow mononuclear cell samples from AL amyloidosis patients; assay: Multiplexed high throughput flow cytometry cytotoxicity assay on patient-derived bone marrow mononuclear cells; assay type: cell-based, human; conditions: for EC50: Homo sapiens; for Cytotoxicity compared to melphalan: in vitro AL amyloidosis cell model, identical concentrations; for Response of plasma cells (CD138+ cells) to treatment: 1 to 100,000 nM
Method: Viably frozen bone marrow mononuclear cells (MNC) from 11 amyloidosis patients were received from a biobank.
Viably frozen cells were thawed and incubated overnight to exclude apoptotic cells. On Day 1, a homogeneous cell suspension at a density of 2×10^6 cells/ml was prepared in RPMI 1640 medium (Lonza) supplemented with 10% fetal bovine serum, 2 mM L-glutamine, penicillin (100 U/ml), streptomycin (100 μg/ml) and 25% conditioned medium from the HS-5 human BM stromal cell line. Melflufen powders were stored in pre-weighted amounts in vials in oxygen and moisture free storage pods. Fresh 10 mM melflufen aliquots were prepared in DMSO. Serial dilutions were prepared in cell culture media and immediately transferred to 96 well plate containing mononuclear cells.
A multiplexed high throughput flow cytometer based assay (iQue® Screener PLUS) was applied, allowing simultaneous monitoring of drug responses in multiple hematopoietic cell subsets. A panel of eight antibodies against CD8, CD14, CD19, CD38, CD45, CD56, CD138 and CD269 were purchased. Annexin-V and 7-AAD were included to exclude dead or apoptotic cells from the analysis. Optimal antibody concentrations were determined and fluorescence compensations were computed to correct spectral overlaps between different fluorochromes. The plates containing melflufen treated cells were incubated in a humidified environment at 37° C. and 5% CO2. After 72 h, antibody cocktails were added to the wells and incubated for 30 min before the plates were read with the iQue® Screener PLUS instrument (Intellicyt®). The data was analyzed using ForeCyt software (Intellicyt). Graphpad Prism 7.0 to generate dose response graphs. Singlet mononuclear cells were subjected to dead and apoptotic cell exclusion using DNA staining dye 7-AAD and expression of Annexin-V surface antigens. Live cell counts for each cell populations were used to analyse effect of different doses on cell viability. Surviving cell fraction were computed by normalizing with viability of untreated cells for each cell subsets.
Melflufen was tested in six concentration over 100,000-fold dilutions (1 to 100,000 nM). Out of 12 cell samples tested, two samples were excluded due to poor viability. The viable samples were assigned the reference numbers AL-1886, AL-2983, AL-4839_2, AL-4839_3, AL-4847, AL-5691, AL-5716, AL-5807, AL-7219, AL-400081.

[2] = test system: lambda light chain secretion in ALMC-1 cells; assay: Human Lambda ELISA of light chain secretion, ALMC-1; assay type: cell-based; conditions: 72 h; for IC50: Homo sapiens, ALMC1, light chain secretion in supernatant
Method: (§1) Cells were plated in a 96-well format in the presence of the indicated compound in doses ranging from 0.014 to 10 mM for 72 hours at 37° C. Cell viability was determined by CellTiter-Blue™ using the manufacturer's standard protocol. Lambda and kappa light chain secretion was measured in the supernatant of cells by ELISA.
(§2) In more detail, for each cell line (JJN3, ALMC-1 and ALMC-2) cells were harvested, washed, re-suspended into full growth media and counted. The cells were seeded at the cell densities shown in Table 1, below, into the inner 60 wells of a 96-well assay plates (Corning, black-wall plates, Cat #3904) in 50 μl/well aliquots. The plates were incubated overnight at 37° C. in 5% humidified CO2. 10 mM stocks of melphalan or melflufen-HCl were used, and sub-aliquots were prepared from the 10 mM stocks of melphalan or melflufen-HCl by diluting the stock. The diluted stock was added into cell culture media at the indicated concentrations for the experiment (0.014 to 10 mM).
(§3) For analysis of secreted proteins, 72 h after incubation, the cells were pelleted by centrifugation at 300 RCF, 4° C. for 5 min and the supernatant taken and used immediately for ELISA analysis using commercial ELISA kits (below) and the manufacturer's protocols: • Human Kappa ELISA (Bethyl Laboratories, #E80-115) • Human Lambda ELISA (Bethyl Laboratories, #E80-116)

[3] = test system: kappa light chain secretion in JJN3 cells; assay: Human Kappa ELISA of light chain secretion, JJN3; assay type: cell-based; conditions: 72 h
Method: as §1, §2, §3

ALMC-1 cell line = assay: Cell viability by CellTiter-Blue, ALMC-1; assay type: cell-based, human; conditions: 72 h
Method: (§4) Cellular toxicity was measured in response to either melflufen or melphalan in the amyloidosis patient-derived light chain secreting ALMC-1 and ALMC-2 cell lines, and the light chain secreting cell line JJN3.
as §1
(§5) In more detail, for each cell line (JJN3, ALMC-1 and ALMC-2) cells were harvested, washed, re-suspended into full growth media and counted. The cells were seeded at the cell densities shown in Table 1, below, into the inner 60 wells of a 96-well assay plates (Corning, black-wall plates, Cat #3904) in 50 μl/well aliquots. The plates were incubated overnight at 37° C. in 5% humidified CO2. 10 mM stocks of melphalan or melflufen-HCl were used, and sub-aliquots were prepared from the 10 mM stocks of melphalan or melflufen-HCl by diluting the stock. […]
(§6) 50 microliters per well of compound/vehicle dilutions were added to the plates in replicates of 3 and incubated for 72 h at 37° C. in 5% humidified CO2. […] Fluorescence was measured using a VarioSkan Flash plate reader (570 nm excitation wavelength, 600 nm emission wavelength).

ALMC-2 cell line = assay: Cell viability by CellTiter-Blue, ALMC-2; assay type: cell-based, human; conditions: 72 h
Method: as §4, §1, §5, §6

[4] = test system: lambda light chain secretion in ALMC-2 cells; assay: Human Lambda ELISA of light chain secretion, ALMC-2; assay type: cell-based; conditions: 72 h; for IC50: Homo sapiens, ALMC2, light chain secretion in supernatant
Method: as §1, §2, §3

JJN3 cell line = assay: Cell viability by CellTiter-Blue, JJN3; assay type: cell-based, human; conditions: 72 h; for IC50: Homo sapiens, JJN-3, cell viability, CellTiter-Blue, doses 0.014 to 10 mM
Method: as §4, §1, §2
50 microliters per well of compound/vehicle dilutions were added to the plates in replicates of 3 and incubated for 72 h at 37° C. in 5% humidified CO2. To develop the plates after 72 h, 20 μl of CellTiter-Blue™ reagent was added to each test/blank well. The plates were incubated at 37° C., 5% humidified CO2 for 1.5/3 h. Fluorescence was measured using a VarioSkan Flash plate reader (570 nm excitation wavelength, 600 nm emission wavelength).

[5] = test system: MM.1S, RPMI-8826, U266 and ALMC-2 cells; assay: Apoptosis and unfolded protein response (UPR) markers in malignant cell lines; assay type: cell-based, human; conditions: all cell lines tested; 6 h, 12 h or 24 h
Method: The toxic effects of melflufen and melphalan were compared in malignant cell lines, including RPMI-8826, ALMC-2, MM1S, and U266 to confirm enhanced toxicity of melflufen compared to melphalan. ALMC-2 cells are derived from an amyloidosis patient. MM.1S, RPMI-8826, U266 or ALMC-2 cells were incubated in the presence or absence of melflufen-HCl or melphalan at the indicated concentrations in FIG. 5A for 6 h, 12 h or 24 h. Cells were then harvested and apoptosis and cell death in response to melflufen and melphalan were measured by Annexin V/propidium iodide and live/dead cell staining by flow cytometry, as well as analysis of cleaved caspases 3, 8, and 9 and PARP by western blot. Effects of melflufen and melphalan on the UPR were examined by analysis of UPR associated molecules including phosphorylated eIF2a, ATF4, IRE1a and PERK by immunoblot analysis using commercially available detection reagents and standard protocols, and ATF4, ATF6, PERK, IRE1 and CHOP by real time qPCR with gene specific primer sets. In addition, XBP-1 splicing was evaluated by PCR analysis.

AL amyloidosis = conditions: cited from earlier work

## CCOC(=O)[C@H](Cc1ccc(F)cc1)NC(=O)[C@@H](N)Cc1ccc(N(CCCl)CCCl)cc1.Cl [melflufen, L-Melphalanyl-4-fluoro-L-phenylalanine ethyl ester]
[1]; 72 h, sample AL-2983, 72 h, read-out: EC50, survival of plasma cells (CD138+ cells)
  EC50: 7 nM
[1]; 72 h, sample AL-4847, 72 h, read-out: EC50, survival of plasma cells (CD138+ cells)
  EC50: 32 nM
[1]; 72 h, sample AL-5807, 72 h, read-out: EC50, survival of plasma cells (CD138+ cells)
  EC50: 1 nM
[1]; cell samples obtained from a population of AL amyloidosis patients, lowest value, read-out: EC50 values as low as, in vitro AL amyloidosis cell model
  EC50: ≥ 1 nM
[1]
  Cytotoxicity compared to melphalan: at least 100 times
[1]; listed as Melflufen
  Cytotoxicity compared to melphalan: 100 times
[1]; plasma cells obtained from patients
  Cytotoxicity in in vitro AL amyloidosis cell model: highly cytotoxic
[1]; samples AL-1886, AL-4839_2, AL-4839_3, AL-5716 and AL-7219, 72 h
  Response of plasma cells (CD138+ cells) to treatment: no notable response
[1]; samples AL-2983, AL-4847, AL-5691, AL-5807 and AL-400081, 72 h
  Response of plasma cells (CD138+ cells) to treatment: displayed sensitivity
[2]; ALMC-1
  Inhibition of light chain secretion compared to melphalan: superior inhibition
[2]
  IC50: 200 nM
[3]; Homo sapiens, JJN-3, light chain secretion in supernatant
  IC50: 2900 nM
[3]; JJN3
  Inhibition of light chain secretion compared to melphalan: superior inhibition
ALMC-1 cell line; ALMC-1
  Sensitivity compared with melphalan: increased sensitivity
ALMC-1 cell line; Homo sapiens, ALMC1, cell viability, CellTiter-Blue, doses 0.014 to 10 mM
  IC50: 1600 nM
ALMC-2 cell line; ALMC-2
  Sensitivity compared with melphalan: increased sensitivity
ALMC-2 cell line; Homo sapiens, ALMC2, cell viability, CellTiter-Blue, doses 0.014 to 10 mM
  IC50: 1200 nM
[4]; ALMC-2
  Inhibition of light chain secretion compared to melphalan: superior inhibition
[4]
  IC50: 450 nM
JJN3 cell line
  IC50: 1200 nM
JJN3 cell line; JJN3
  Sensitivity compared with melphalan: increased sensitivity
[5]
  Sensitivity with regard to inducing apoptosis, XBP-1 splicing and markers of UPR and apoptosis, compared to melphalan: significantly more sensitive to melflufen than melphalan

## N[C@@H](Cc1ccc(N(CCCl)CCCl)cc1)C(=O)O [melphalan, reference compound]
[2]
  IC50: 2500 nM
AL amyloidosis; high-dose melphalan (for example 200 mg/m^2) with autologous hematopoietic stem cell rescue
  Treatment-related toxicity and mortality: significant treatment-related toxicity and high treatment related mortality rates
AL amyloidosis; melphalan (for example 20-25 mg/m^2) in combination with prednisolone
  Plasma cell levels and survival: reduce plasma cell levels and increase survival rates by a few months
[4]
  IC50: 5100 nM
JJN3 cell line
  IC50: 5400 nM
